In the assay the target is full-length human ATR protein (Homo sapiens (Human), UniProt Q13535). The experiment in a line: Binding assay ATR (TR-FRET tracer displacement). The note with it: read-out: ATR binding (tracer A) IC50. In short, it runs like this:
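Full-length human GST-ATR co-purified with ATRIP, pre-complexed 30 min at 22 °C with anti-GST-Tb antibody, then pre-bound with compound 10 min. Tracer A or B added (2 µl of 100 nM solution), 30 min at 22 °C.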

pIC50: −log10 of the molar value. Where two headings read alike, the source gives them in different places.

Chain of full-length human ATR protein (Q13535 other isoform, or with tags, fused parts or gaps): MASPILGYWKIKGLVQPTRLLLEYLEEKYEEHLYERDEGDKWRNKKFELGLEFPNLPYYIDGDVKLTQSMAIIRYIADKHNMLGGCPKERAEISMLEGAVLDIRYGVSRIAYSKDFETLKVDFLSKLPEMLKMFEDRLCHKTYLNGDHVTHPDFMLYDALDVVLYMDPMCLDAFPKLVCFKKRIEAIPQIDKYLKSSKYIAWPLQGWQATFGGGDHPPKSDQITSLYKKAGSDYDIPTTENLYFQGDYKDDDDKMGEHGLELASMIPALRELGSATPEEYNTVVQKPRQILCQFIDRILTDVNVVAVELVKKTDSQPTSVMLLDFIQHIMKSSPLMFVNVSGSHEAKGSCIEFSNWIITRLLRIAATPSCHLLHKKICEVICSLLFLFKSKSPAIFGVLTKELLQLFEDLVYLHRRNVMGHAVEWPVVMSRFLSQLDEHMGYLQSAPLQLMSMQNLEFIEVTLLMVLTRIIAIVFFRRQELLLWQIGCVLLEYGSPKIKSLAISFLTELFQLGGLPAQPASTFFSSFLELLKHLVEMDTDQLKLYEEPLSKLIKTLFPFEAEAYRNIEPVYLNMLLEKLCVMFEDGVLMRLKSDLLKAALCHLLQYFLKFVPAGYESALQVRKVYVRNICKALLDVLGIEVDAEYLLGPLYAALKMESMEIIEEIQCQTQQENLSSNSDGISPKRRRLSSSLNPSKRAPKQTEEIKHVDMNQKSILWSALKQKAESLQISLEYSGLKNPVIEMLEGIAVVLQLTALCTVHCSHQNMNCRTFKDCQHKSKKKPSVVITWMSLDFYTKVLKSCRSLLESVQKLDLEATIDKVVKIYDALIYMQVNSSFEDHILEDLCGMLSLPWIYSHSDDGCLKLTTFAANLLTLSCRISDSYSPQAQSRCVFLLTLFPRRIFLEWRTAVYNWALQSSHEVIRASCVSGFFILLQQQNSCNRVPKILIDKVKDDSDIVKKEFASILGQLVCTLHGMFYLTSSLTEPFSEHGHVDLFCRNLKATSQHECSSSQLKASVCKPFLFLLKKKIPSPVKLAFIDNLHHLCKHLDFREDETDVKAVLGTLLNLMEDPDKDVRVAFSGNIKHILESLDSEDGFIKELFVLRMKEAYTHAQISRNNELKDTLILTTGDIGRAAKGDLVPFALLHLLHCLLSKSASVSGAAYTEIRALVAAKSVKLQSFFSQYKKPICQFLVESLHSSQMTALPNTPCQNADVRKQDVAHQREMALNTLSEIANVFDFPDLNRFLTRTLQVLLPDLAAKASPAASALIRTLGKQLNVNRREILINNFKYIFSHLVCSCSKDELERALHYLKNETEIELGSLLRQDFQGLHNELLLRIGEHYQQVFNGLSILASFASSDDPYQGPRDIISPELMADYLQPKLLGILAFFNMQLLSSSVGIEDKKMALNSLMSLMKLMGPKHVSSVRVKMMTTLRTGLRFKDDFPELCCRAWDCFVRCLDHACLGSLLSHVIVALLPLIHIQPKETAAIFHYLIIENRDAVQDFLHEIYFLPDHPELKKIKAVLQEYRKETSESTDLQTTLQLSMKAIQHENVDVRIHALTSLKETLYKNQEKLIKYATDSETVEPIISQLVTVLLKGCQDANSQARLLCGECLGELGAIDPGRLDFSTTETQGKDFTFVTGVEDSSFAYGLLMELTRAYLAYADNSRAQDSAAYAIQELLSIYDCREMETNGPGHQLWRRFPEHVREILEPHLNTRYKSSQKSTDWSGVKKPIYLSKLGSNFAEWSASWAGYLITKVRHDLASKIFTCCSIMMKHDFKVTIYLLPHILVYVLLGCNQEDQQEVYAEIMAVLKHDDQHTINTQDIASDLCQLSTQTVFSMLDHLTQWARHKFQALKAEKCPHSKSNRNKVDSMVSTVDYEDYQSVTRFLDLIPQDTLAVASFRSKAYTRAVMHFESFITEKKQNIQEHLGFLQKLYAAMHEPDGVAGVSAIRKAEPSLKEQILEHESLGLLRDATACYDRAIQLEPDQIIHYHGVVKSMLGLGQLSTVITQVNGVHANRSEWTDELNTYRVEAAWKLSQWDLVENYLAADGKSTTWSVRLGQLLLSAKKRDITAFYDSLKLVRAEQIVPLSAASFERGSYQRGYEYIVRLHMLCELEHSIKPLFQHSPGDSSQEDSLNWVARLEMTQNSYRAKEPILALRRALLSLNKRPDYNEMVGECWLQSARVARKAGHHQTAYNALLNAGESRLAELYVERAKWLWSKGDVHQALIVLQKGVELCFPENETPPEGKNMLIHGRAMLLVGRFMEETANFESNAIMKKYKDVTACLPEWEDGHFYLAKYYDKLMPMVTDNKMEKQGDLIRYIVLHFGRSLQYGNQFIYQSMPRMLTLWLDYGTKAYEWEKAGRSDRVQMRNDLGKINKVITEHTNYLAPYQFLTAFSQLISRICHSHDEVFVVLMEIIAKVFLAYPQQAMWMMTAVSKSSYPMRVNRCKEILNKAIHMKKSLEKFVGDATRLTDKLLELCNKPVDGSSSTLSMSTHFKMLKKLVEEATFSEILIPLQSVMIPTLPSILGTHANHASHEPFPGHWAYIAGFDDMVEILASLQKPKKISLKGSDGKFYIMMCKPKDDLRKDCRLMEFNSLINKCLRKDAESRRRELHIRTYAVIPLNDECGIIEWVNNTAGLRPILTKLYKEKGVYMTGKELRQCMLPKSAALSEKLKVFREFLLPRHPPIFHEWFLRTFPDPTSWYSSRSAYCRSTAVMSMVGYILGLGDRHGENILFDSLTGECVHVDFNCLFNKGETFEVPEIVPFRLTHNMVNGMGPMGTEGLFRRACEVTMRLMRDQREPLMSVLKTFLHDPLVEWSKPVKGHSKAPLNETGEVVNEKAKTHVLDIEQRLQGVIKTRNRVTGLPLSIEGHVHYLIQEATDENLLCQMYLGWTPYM
Chain of full-length human ATR protein (Q8WXE1 other isoform, or with tags, fused parts or gaps partner): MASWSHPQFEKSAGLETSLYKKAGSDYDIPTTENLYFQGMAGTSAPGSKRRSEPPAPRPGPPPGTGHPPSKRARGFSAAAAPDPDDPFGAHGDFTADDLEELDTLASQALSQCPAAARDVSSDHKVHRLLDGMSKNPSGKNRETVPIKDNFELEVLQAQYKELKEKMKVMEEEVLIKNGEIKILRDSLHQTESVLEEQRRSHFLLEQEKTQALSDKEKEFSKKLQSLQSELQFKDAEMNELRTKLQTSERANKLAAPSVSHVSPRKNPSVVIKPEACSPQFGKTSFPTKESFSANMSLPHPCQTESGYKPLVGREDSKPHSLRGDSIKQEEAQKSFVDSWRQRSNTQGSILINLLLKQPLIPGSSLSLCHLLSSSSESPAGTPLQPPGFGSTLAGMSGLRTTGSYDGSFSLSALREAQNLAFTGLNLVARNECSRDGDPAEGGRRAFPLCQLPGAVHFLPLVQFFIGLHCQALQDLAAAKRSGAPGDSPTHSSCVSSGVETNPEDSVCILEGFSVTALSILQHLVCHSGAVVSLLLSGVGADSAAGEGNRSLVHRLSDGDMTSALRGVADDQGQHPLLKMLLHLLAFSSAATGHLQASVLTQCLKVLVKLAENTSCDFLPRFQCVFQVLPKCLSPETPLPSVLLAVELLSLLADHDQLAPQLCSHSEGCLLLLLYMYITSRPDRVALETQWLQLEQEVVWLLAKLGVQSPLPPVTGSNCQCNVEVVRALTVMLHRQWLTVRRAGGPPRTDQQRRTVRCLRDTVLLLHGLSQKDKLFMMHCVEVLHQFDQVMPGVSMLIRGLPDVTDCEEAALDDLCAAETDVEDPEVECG

For orientation: pIC50 means the IC50 on a negative log10 scale, so that one unit is a factor of ten. As to `C[C@@H]1COCCN1c1cc(-c2cccnc2O)c2ccnc(-c3ccn[nH]3)c2n1` [Example 167, 3-{2-[(3R)-3-methylmorpholin-4-yl]-8-(1H-pyrazol-5-yl)-1,7-naphthyridin-4-yl}pyridin-2-ol], the pIC50 (tracer A, TR-FRET) was 6.39.
Still for that read-out and setting: as for `C[C@@H]1COCCN1c1cc(-c2cccc(C(C)(C)O)c2)c2ccnc(-c3ccn[nH]3)c2n1` [Example 168, 2-(3-{2-[(3R)-3-methylmorpholin-4-yl]-8-(1H-pyrazol-5-yl)-1,7-naphthyridin-4-yl}phenyl)propan-2-ol], the figure is 6.28.
Still for that read-out and setting: in the case of `c1cc(-c2nccc3c(N4CCn5ccnc5C4)cc(N4CCOCC4)nc23)[nH]n1` [Example 169, 4-(5,6-dihydroimidazo[1,2-a]pyrazin-7(8H)-yl)-2-(morpholin-4-yl)-8-(1H-pyrazol-5-yl)-1,7-naphthyridine] it was 6.94; in that of `C[C@H]1CN(c2cc(N3CCOCC3)nc3c(-c4ccn[nH]4)nccc23)CCO1` [Example 170, 4-[(2S)-2-methylmorpholin-4-yl]-2-(morpholin-4-yl)-8-(1H-pyrazol-5-yl)-1,7-naphthyridine], 6.77; in that of `C[C@@H]1COCCN1c1cc(OC(F)F)c2ccnc(-c3ccn[nH]3)c2n1` [Example 172, 4-(difluoromethoxy)-2-[(3R)-3-methylmorpholin-4-yl]-8-(1H-pyrazol-5-yl)-1,7-naphthyridine], 7.08.
For the molecule `CC(C)(O)c1cc(N2CCOCC2)nc2c(-c3ccn[nH]3)nccc12` [Example 173, 2-[2-(morpholin-4-yl)-8-(1H-pyrazol-5-yl)-1,7-naphthyridin-4-yl]propan-2-ol], the pIC50 (tracer A, TR-FRET) was 6.69.
As to `c1cc(-c2nccc3c(N4C5CCC4COC5)cc(N4CCOCC4)nc23)[nH]n1` [Example 174, 2-(morpholin-4-yl)-4-(3-oxa-8-azabicyclo[3.2.1]oct-8-yl)-8-(1H-pyrazol-5-yl)-1,7-naphthyridine], under “tracer A, TR-FRET”, the pIC50 was 6.67.
With `C[C@@H]1COCCN1c1cc(N2CCCC2)c2ccnc(-c3ccn[nH]3)c2n1` [Example 175, 2-[(3R)-3-methylmorpholin-4-yl]-8-(1H-pyrazol-5-yl)-4-(pyrrolidin-1-yl)-1,7-naphthyridine], where the note is “tracer A, TR-FRET”, the pIC50 was 6.66.
Still for that read-out and setting: as for `O=C1CN(c2cc(N3CCOCC3)nc3c(-c4ccn[nH]4)nccc23)CCN1` [Example 176, 4-[2-(morpholin-4-yl)-8-(1H-pyrazol-5-yl)-1,7-naphthyridin-4-yl]piperazin-2-one], the figure is 6.65; as for `CP(C)(=O)c1cc(N2CCOCC2)nc2c(-c3ccn[nH]3)nccc12` [Example 177, 4-(dimethylphosphoryl)-2-(morpholin-4-yl)-8-(1H-pyrazol-5-yl)-1,7-naphthyridine], 6.60; as for `C[C@@H]1CN(c2cc(N3CCOCC3)nc3c(-c4ccn[nH]4)nccc23)C[C@H](C)N1` [Example 179, 4-[(cis)-3,5-dimethylpiperazin-1-yl]-2-(morpholin-4-yl)-8-(1H-pyrazol-5-yl)-1,7-naphthyridine], 6.34.
Consider `OC1(C(F)(F)F)CN(c2cc(N3CCOCC3)nc3c(-c4ccn[nH]4)nccc23)C1` [Example 180, 1-[2-(morpholin-4-yl)-8-(1H-pyrazol-5-yl)-1,7-naphthyridin-4-yl]-3-(trifluoromethyl)azetidin-3-ol], for which the pIC50 (tracer A, TR-FRET) is 6.31.
Regarding `COP(=O)(O)c1ccc(-c2cc(N3CCOCC3)nc3c(-c4ccn[nH]4)nccc23)cc1` [Example 181, Methyl hydrogen {4-[2-(morpholin-4-yl)-8-(1H-pyrazol-5-yl)-1,7-naphthyridin-4-yl]phenyl}phosphonate], the pIC50 is 6.27.
On to `CN1CCN(c2cc(N3CCOCC3)nc3c(-c4ccn[nH]4)nccc23)CC1` [Example 182, 4-(4-methylpiperazin-1-yl)-2-(morpholin-4-yl)-8-(1H-pyrazol-5-yl)-1,7-naphthyridine], for which the pIC50 (tracer A, TR-FRET) is 6.20.
Still for that read-out and setting: as for `c1cc(-c2nccc3c(N4C[C@H]5COC[C@H]5C4)cc(N4CCOCC4)nc23)[nH]n1` [Example 183, 2-(morpholin-4-yl)-8-(1H-pyrazol-5-yl)-4-[(3aR,6aS)-tetrahydro-1H-furo[3,4-c]pyrrol-5(3H)-yl]-1,7-naphthyridine], the figure is 6.19.
Still for that read-out and setting: in the case of `COC1(C)CN(c2cc(N3CCOCC3)nc3c(-c4ccn[nH]4)nccc23)C1` [Example 184, 4-(3-methoxy-3-methylazetidin-1-yl)-2-(morpholin-4-yl)-8-(1H-pyrazol-5-yl)-1,7-naphthyridine] it was 6.12.
As to `CSCc1cc(N2CCOC[C@H]2C)nc2c(-c3ccn[nH]3)nccc12` [Example 186, 2-[(3R)-3-methylmorpholin-4-yl]-4-[(methylsulfanyl)methyl]-8-(1H-pyrazol-5-yl)-1,7-naphthyridine], the pIC50 (tracer A, TR-FRET) was 7.17.
In the case of `Cc1cc(-c2cc(N3CCOCC3)nc3c(-c4ccn[nH]4)nccc23)ccn1` [Example 188, 4-(2-methylpyridin-4-yl)-2-(morpholin-4-yl)-8-(1H-pyrazol-5-yl)-1,7-naphthyridine], the pIC50 (tracer A, TR-FRET) is 6.60.
As to `C[C@@H]1COCCN1c1cc(C2(O)CCCCC2)c2ccnc(-c3ccn[nH]3)c2n1` [Example 189, 1-{2-[(3R)-3-methylmorpholin-4-yl]-8-(1H-pyrazol-5-yl)-1,7-naphthyridin-4-yl}cyclohexanol], where the note is “tracer A, TR-FRET”, the pIC50 is 7.67.
The same measure, in the same setting: as for `CS(=O)(=NC#N)c1ccc(-c2cc(N3CCOCC3)nc3c(-c4ccn[nH]4)nccc23)cc1` (centres unmarked) [Example 191, (methyl{4-[2-(morpholin-4-yl)-8-(1H-pyrazol-5-yl)-1,7-naphthyridin-4-yl]phenyl}oxido-λ^6-sulfanylidene)cyanamide], the figure is 7.36; as for `CCNC(=O)N=S(C)(=O)c1ccc(-c2cc(N3CCOCC3)nc3c(-c4ccn[nH]4)nccc23)cc1` (centres unmarked) [Example 192, 1-ethyl-3-(methyl{4-[2-(morpholin-4-yl)-8-(1H-pyrazol-5-yl)-1,7-naphthyridin-4-yl]phenyl}oxido-λ^6-sulfanylidene)urea], 6.94.
Take `C[C@@H]1COCCN1c1cc(OCCCN)c2ccnc(-c3ccn[nH]3)c2n1` [Example 193, 3-({2-[(3R)-3-methylmorpholin-4-yl]-8-(1H-pyrazol-5-yl)-1,7-naphthyridin-4-yl}oxy)propan-1-amine]: the pIC50 (tracer A, TR-FRET) was 6.61.
Turning to `C[C@@H]1COCCN1c1cc(-c2[nH]nnc2C2CC2)c2ccnc(-c3ccn[nH]3)c2n1` [Example 194, 4-(4-cyclopropyl-1H-1,2,3-triazol-5-yl)-2-[(3R)-3-methylmorpholin-4-yl]-8-(1H-pyrazol-5-yl)-1,7-naphthyridine], under “tracer A, TR-FRET”, the pIC50 was 7.42.
Turning to `CC[S+]([O-])c1cc(N2CCOCC2)nc2c(-c3ccn[nH]3)nccc12` (centres unmarked) [Example 195, 4-ethylsulfinyl-2-(morpholin-4-yl)-8-(1H-pyrazol-5-yl)-1,7-naphthyridine], the pIC50 (tracer A, TR-FRET) was 7.15.
Same read-out and setting: in the case of `CC(C)[S+]([O-])c1cc(N2CCOCC2)nc2c(-c3ccn[nH]3)nccc12` (centres unmarked) [Example 196, 2-(morpholin-4-yl)-4-[propan-2-ylsulfinyl]-8-(1H-pyrazol-5-yl)-1,7-naphthyridine] it was 7.14.
For the molecule `C[C@@H]1COCCN1c1cc(OCCCS(C)(=O)=O)c2ccnc(-c3ccn[nH]3)c2n1` [Example 197, 2-[(3R)-3-methylmorpholin-4-yl]-4-[3-(methylsulfonyl)propoxy]-8-(1H-pyrazol-5-yl)-1,7-naphthyridine], for the setting “tracer A, TR-FRET”, the pIC50 was 7.14.

The values are drawn from patent publication US9549932B2, “2-(morpholin-4-yl)-1,7-naphthyridines” (BAYER PHARMA AKTIENGESELLSCHAFT, priority 2014, dated 2017).
